Measurements reported in PubChem BioAssay AID248 (DTP/NCI, 2004).
Values joined by “and” are separate entries in the source; they are usually repeats but may differ in a detail not shown here. Identical values can stand only once. Toxic doses and inconclusive results are not listed. Cut-off read from the data, not from the text of the source: active = T/C of 150% or more; inactive = T/C below 125%.

System: L1210 leukemia ip in BDF1 mice, survival T/C
Experiment: NCI In Vivo Anticancer Drug Screen. Data for tumor model L1210 Leukemia (intraperitoneal) in B6D2F1 (BDF1) mice
Details: endpoint: mean survival time, higher = longer survival
Procedure, shortened: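 Antitumor effect is assessed in tumor-bearing animals. Survival in the compound arm is compared with a vehicle-dosed control arm and expressed as their quotient.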

[1] = dose: 400.0 mg/kg/injection, schedule: Q04DX002 (ip), vehicle: saline with Tween-80
[2] = dose: 100.0 mg/kg/injection, schedule: Q01DX001 (ip), vehicle: saline
[3] = dose: 100.0 mg/kg/injection, schedule: Q01DX009 (ip), vehicle: saline
[4] = dose: 200.0 mg/kg/injection, schedule: Q01DX001 (ip), vehicle: saline
[5] = dose: 200.0 mg/kg/injection, schedule: Q01DX009 (ip), vehicle: saline
[6] = dose: 400.0 mg/kg/injection, schedule: Q01DX001 (ip), vehicle: saline
[7] = dose: 400.0 mg/kg/injection, schedule: Q01DX009 (ip), vehicle: saline
[8] = dose: 100.0 mg/kg/injection, schedule: Q01DX009 (ip), vehicle: saline with Tween-80
[9] = dose: 200.0 mg/kg/injection, schedule: Q01DX009 (ip), vehicle: saline with Tween-80
[10] = dose: 400.0 mg/kg/injection, schedule: Q01DX009 (ip), vehicle: saline with Tween-80
[11] = dose: 50.0 mg/kg/injection, schedule: Q04DX003 (ip), vehicle: carboxymethylcellulose (CMC)
[12] = dose: 100.0 mg/kg/injection, schedule: Q01DX009 (ip), vehicle: Klucel (hydroxypropylcellulose) (HPC)
[13] = dose: 100.0 mg/kg/injection, schedule: Q04DX003 (ip), vehicle: carboxymethylcellulose (CMC)
[14] = dose: 25.0 mg/kg/injection, schedule: Q04DX002 (ip), vehicle: Klucel (hydroxypropylcellulose) (HPC)
[15] = dose: 50.0 mg/kg/injection, schedule: Q04DX002 (ip), vehicle: Klucel (hydroxypropylcellulose) (HPC)
[16] = dose: 100.0 mg/kg/injection, schedule: Q01DX001 (ip), vehicle: saline with Tween-80
[17] = dose: 200.0 mg/kg/injection, schedule: Q01DX001 (ip), vehicle: saline with Tween-80

Measured: T/C

Nc1ccc(-c2ccc(N)cc2I)c(I)c1
inactive: dose: 25.6 mg/kg/injection, schedule: Q04DX002 (ip), vehicle: saline with Tween-80 100 % of control | dose: 64.0 mg/kg/injection, schedule: Q04DX002 (ip), vehicle: saline with Tween-80 95 % of control | dose: 160.0 mg/kg/injection, schedule: Q04DX002 (ip), vehicle: saline with Tween-80 100 % of control | [1] 103 % of control

CC1=C2C(=C[C@@](C)(CO)[C@@H]2O)C(=O)[C@](C)(O)C12CC2
inactive: dose: 75.0 micrograms/kg/injection, schedule: Q01DX Z (ip), vehicle: saline 103 % of control | dose: 150.0 micrograms/kg/injection, schedule: Q01DX Z (ip), vehicle: saline 117 % of control | dose: 300.0 micrograms/kg/injection, schedule: Q01DX Z (ip), vehicle: saline 117 % of control | dose: 600.0 micrograms/kg/injection, schedule: Q01DX Z (ip), vehicle: saline 100 % of control

ClC1=C(Cl)C2(Cl)C3(Cl)C(Cl)=C(Cl)C(Cl)(C34OCCO4)C2(Cl)C12OCCO2 (configuration not stated)
inactive: dose: 50.0 mg/kg/injection, schedule: Q01DX001 (ip), vehicle: saline 107 % of control | [2] 105 % of control | [3] 90 % of control | dose: 100.0 mg/kg/injection, schedule: Q04DX003 (ip), vehicle: saline 98 % of control | [4] 94 % of control | [5] 93 % of control | dose: 200.0 mg/kg/injection, schedule: Q04DX003 (ip), vehicle: saline 97 % of control | [6] 100 % of control | [7] 92 % of control | dose: 400.0 mg/kg/injection, schedule: Q04DX003 (ip), vehicle: saline 103 % of control

CCOC(=O)c1cnc(SC)nc1N(C)C
inactive: dose: 100.0 mg/kg/injection, schedule: Q04DX003 (ip), vehicle: saline with Tween-80 96 % of control | dose: 200.0 mg/kg/injection, schedule: Q04DX003 (ip), vehicle: saline with Tween-80 96 % of control

OC(/C=C/c1ccccc1)C(O)/C=C/c1ccccc1 (configuration not stated)
inactive: [8] 102 % of control | [9] 104 % of control | [10] 111 % of control

CC(=O)/C=N/Nc1ccccc1
inactive: dose: 25.0 mg/kg/injection, schedule: Q01DX009 (ip), vehicle: Klucel (hydroxypropylcellulose) (HPC) 93 % of control | dose: 50.0 mg/kg/injection, schedule: Q01DX009 (ip), vehicle: Klucel (hydroxypropylcellulose) (HPC) 97 % of control | [11] 110 % of control | [12] 97 % of control | [13] 106 % of control

Nc1ncnc2nc(C3OC(CO)C(O)C3O)[nH]c12 (configuration not stated)
inactive: dose: 100.0 mg/kg/injection, schedule: Q01DX005 (ip), vehicle: saline 96 % of control | dose: 200.0 mg/kg/injection, schedule: Q01DX005 (ip), vehicle: saline 96 % of control

COc1ccc(OC)c(NC(=S)N/N=C(\C)c2cc(Cl)ccc2O)c1
inactive: dose: 12.5 mg/kg/injection, schedule: Q04DX002 (ip), vehicle: Klucel (hydroxypropylcellulose) (HPC) 102 % of control | [14] 102 % of control | [15] 118 % of control

CN(C)NCCOC(c1ccccc1)c1ccccc1
inactive: [14] 102 % of control | [15] 106 % of control | dose: 100.0 mg/kg/injection, schedule: Q04DX002 (ip), vehicle: Klucel (hydroxypropylcellulose) (HPC) 95 % of control and 108 % of control

CN(C(=O)c1ccncc1)c1ccccc1
inactive: dose: 50.0 mg/kg/injection, schedule: Q01DX009 (ip), vehicle: carboxymethylcellulose (CMC) 93 % of control and 98 % of control | dose: 50.0 mg/kg/injection, schedule: Q04DX002 (ip), vehicle: carboxymethylcellulose (CMC) 95 % of control and 100 % of control | [11] 95 % of control | dose: 100.0 mg/kg/injection, schedule: Q01DX009 (ip), vehicle: carboxymethylcellulose (CMC) 98 % of control and 90 % of control | dose: 100.0 mg/kg/injection, schedule: Q04DX002 (ip), vehicle: carboxymethylcellulose (CMC) 100 % of control (2×) and 106 % of control | [13] 97 % of control | dose: 200.0 mg/kg/injection, schedule: Q01DX009 (ip), vehicle: carboxymethylcellulose (CMC) 90 % of control and 91 % of control | dose: 200.0 mg/kg/injection, schedule: Q04DX002 (ip), vehicle: carboxymethylcellulose (CMC) 97 % of control (2×) and 98 % of control | dose: 200.0 mg/kg/injection, schedule: Q04DX003 (ip), vehicle: carboxymethylcellulose (CMC) 98 % of control | dose: 400.0 mg/kg/injection, schedule: Q04DX002 (ip), vehicle: carboxymethylcellulose (CMC) 93 % of control

COc1ccc(/C=N\O)cc1OC
inactive: [8] 94 % of control and 90 % of control | [9] 101 % of control | [10] 90 % of control

CC(=O)Nc1ccccc1C(=O)O
inactive: [8] 100 % of control | [9] 97 % of control | [10] 100 % of control

COC(=O)C1OC1c1ccc2ccccc2c1 (configuration not stated)
inactive: [12] 93 % of control | dose: 200.0 mg/kg/injection, schedule: Q01DX009 (ip), vehicle: Klucel (hydroxypropylcellulose) (HPC) 95 % of control | dose: 400.0 mg/kg/injection, schedule: Q01DX009 (ip), vehicle: Klucel (hydroxypropylcellulose) (HPC) 97 % of control

O=S(=O)(Cc1ccccc1)C(=C(N1CCCCC1)N1CCCCC1)S(=O)(=O)Cc1ccccc1
inactive: [2] 102 % of control | [3] 94 % of control | [4] 104 % of control | [5] 93 % of control | [6] 98 % of control | [7] 96 % of control

CC(O)C1CCC2C3CCC4CC(SC(=O)c5ccccc5)CCC4(C)C3CCC12C (configuration not stated)
inactive: dose: 50.0 mg/kg/injection, schedule: Q01DX001 (sc), vehicle: steriod suspending solution 103 % of control | dose: 100.0 mg/kg/injection, schedule: Q01DX001 (sc), vehicle: steriod suspending solution 97 % of control | dose: 200.0 mg/kg/injection, schedule: Q01DX001 (sc), vehicle: steriod suspending solution 97 % of control | dose: 400.0 mg/kg/injection, schedule: Q01DX001 (sc), vehicle: steriod suspending solution 94 % of control

CC(C)C(=O)[O][Pb]([CH3])([CH3])[CH3]
inactive: dose: 12.5 mg/kg/injection, schedule: Q04DX002 (ip), vehicle: saline 90 % of control

Cc1ccc(C)c(NC(=O)NCCN(C)c2ccccc2)c1
inactive: [16] 96 % of control | [8] 87 % of control | dose: 100.0 mg/kg/injection, schedule: Q04DX002 (ip), vehicle: saline with Tween-80 89 % of control and 91 % of control | [17] 93 % of control | [9] 89 % of control | dose: 200.0 mg/kg/injection, schedule: Q04DX002 (ip), vehicle: saline with Tween-80 89 % of control and 91 % of control | dose: 400.0 mg/kg/injection, schedule: Q01DX001 (ip), vehicle: saline with Tween-80 92 % of control | [10] 101 % of control | [1] 89 % of control and 91 % of control

Nc1nc(N)c(N)c(SCC(=O)C(=O)O)n1
inactive: dose: 25.0 mg/kg/injection, schedule: Q01DX001 (ip), vehicle: saline with Tween-80 108 % of control | dose: 50.0 mg/kg/injection, schedule: Q01DX001 (ip), vehicle: saline with Tween-80 111 % of control | [16] 106 % of control and 108 % of control | [17] 115 % of control

CCCCOC(=O)c1ccc(O)c(OC)c1
inactive: [2] 100 % of control | [4] 105 % of control | [6] 102 % of control
